Measurements as given in patent US20150020915A1, “Antiperspirant Spray Devices and Compositions” (The Procter & Gamble Company, priority 2013, published 2015).

Text: (§1) Solubility may be determined by measuring the amount of light transmittance (a light transmittance value) through a simple mixture of the non-volatile silicone fluid and liquid activation enhancer at the same weight/weight concentrations as in a final antiperspirant composition.
as §1, with “Solubility of a liquid activation enhancer in a non-volatile silicone” for “Solubility”, “(light” for “(a light”
The Spectronic Genesys 10 V is utilizes a tungsten-halogen light source and has a spectral bandwidth of 5 nm, a wavelength range of 325 to 1100 nm, accuracy of ±1 nm and a repeatability of ±0.5 nm. Readouts include absorbance, transmittance and concentration. The spectrophotometer is set to 640 nm wavelength and the percent transmittance mode/readout. Polystyrene spectrometer cuvettes having a 1 cm optical light path and transmittance between ˜340 nm and ˜900 nm are used. One suitable example of a spectrometer cuvette is available from VWR International LLC under Catalog #97000-584 having a 2.5 to 4.5 ml capacity. The spectrophotometer is calibrated according to the manufacturer's instructions using a reference cuvette and composition comprised of just the non-volatile silicone fluid of interest. For example, if the test composition comprises 50 centistoke dimethicone and 15% w/w of isopropyl myristate, then the spectrometer is calibrated using a cuvette containing just 50 centistoke dimethicone. Sample cuvettes are filled sufficiently with a test composition of a non-volatile silicone fluid and liquid activation enhancer so that the light path of the spectrophotometer passes through the test composition in the cuvette. The sample cuvettes are shaken well just prior to taking a light transmittance reading.

Row | light transmittance value | Compound | solubility in 50 centistoke dimethicone (in words)
1 | about 100% | CCCCCCCCCCCCCCCCCC(=O)OCCCC [butyl stearate] | –
2 | about 101% | CCCCCCCCCCCCCCCC(=O)OC(C)C [isopropyl palmitate] | –
3 | about 101% | CCCCCCCCCCCCCC(=O)OC(C)C [isopropyl myristate] | –
4 | – | mineral oil | soluble in 50 centistoke dimethicone at some (lower) concentrations
5 | – | CCCCCCCCCCC(CO)CCCCCCCC (centres unmarked) [octyldodecanol] | soluble in the 50 centistoke dimethicone at some (lower) concentrations
6 | – | PPG-14 butyl ether | insoluble
7 | about 100% | CCCCCCCCCCCCCC(C)C [isohexadecane] | soluble
